The source of these data is paper PMC3914206.

The target of assay [1] is T1, panel of 442 kinases (Homo sapiens, UniProt P52333).
T1 construct: purchased KINOMEscan
T1 sequence (P52333 1-1124): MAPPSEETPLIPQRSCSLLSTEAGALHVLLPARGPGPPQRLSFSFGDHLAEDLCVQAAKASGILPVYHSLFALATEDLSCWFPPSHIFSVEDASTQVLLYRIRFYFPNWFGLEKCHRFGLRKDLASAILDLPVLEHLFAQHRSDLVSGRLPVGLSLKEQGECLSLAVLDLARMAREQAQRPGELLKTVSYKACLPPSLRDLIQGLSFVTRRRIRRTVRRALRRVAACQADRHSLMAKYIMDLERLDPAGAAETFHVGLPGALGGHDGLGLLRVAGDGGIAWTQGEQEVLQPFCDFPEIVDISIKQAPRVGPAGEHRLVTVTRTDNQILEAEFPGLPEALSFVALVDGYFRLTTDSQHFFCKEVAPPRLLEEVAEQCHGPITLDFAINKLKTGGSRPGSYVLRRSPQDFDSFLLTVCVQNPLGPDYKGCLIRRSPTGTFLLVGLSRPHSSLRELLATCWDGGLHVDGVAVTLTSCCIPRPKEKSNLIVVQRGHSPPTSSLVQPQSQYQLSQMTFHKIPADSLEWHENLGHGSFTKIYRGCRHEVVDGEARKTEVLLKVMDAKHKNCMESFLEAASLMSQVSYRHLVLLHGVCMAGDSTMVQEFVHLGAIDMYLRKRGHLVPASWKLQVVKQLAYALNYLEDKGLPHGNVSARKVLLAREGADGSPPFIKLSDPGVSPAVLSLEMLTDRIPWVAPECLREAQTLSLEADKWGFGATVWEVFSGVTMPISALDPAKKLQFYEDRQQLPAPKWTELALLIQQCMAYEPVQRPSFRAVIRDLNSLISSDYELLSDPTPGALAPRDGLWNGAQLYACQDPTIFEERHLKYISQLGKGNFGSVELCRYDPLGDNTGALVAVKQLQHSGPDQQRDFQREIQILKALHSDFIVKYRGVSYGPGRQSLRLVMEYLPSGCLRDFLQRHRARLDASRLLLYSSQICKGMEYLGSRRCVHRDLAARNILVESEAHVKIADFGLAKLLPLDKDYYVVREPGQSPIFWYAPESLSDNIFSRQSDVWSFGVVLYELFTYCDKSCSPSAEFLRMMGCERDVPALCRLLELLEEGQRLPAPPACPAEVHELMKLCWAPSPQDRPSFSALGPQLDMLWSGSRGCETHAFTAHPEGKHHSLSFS
The assay is classed as binding. As to conditions: Compound Concentration 10 µM. From the text:
(§1) We assessed the selectivity of members of this scaffold using the KINOMEscan methodology across a near comprehensive panel of 442 kinases [[18,27]].

Assay [2] deals with T2, panel of 442 kinases (Homo sapiens, UniProt P00533).
T2 construct: purchased KINOMEscan
The assay is classed as binding. Conditions: Compound Concentration 10 µM.
Source text: as §1

T2 sequence (P00533 25-1210): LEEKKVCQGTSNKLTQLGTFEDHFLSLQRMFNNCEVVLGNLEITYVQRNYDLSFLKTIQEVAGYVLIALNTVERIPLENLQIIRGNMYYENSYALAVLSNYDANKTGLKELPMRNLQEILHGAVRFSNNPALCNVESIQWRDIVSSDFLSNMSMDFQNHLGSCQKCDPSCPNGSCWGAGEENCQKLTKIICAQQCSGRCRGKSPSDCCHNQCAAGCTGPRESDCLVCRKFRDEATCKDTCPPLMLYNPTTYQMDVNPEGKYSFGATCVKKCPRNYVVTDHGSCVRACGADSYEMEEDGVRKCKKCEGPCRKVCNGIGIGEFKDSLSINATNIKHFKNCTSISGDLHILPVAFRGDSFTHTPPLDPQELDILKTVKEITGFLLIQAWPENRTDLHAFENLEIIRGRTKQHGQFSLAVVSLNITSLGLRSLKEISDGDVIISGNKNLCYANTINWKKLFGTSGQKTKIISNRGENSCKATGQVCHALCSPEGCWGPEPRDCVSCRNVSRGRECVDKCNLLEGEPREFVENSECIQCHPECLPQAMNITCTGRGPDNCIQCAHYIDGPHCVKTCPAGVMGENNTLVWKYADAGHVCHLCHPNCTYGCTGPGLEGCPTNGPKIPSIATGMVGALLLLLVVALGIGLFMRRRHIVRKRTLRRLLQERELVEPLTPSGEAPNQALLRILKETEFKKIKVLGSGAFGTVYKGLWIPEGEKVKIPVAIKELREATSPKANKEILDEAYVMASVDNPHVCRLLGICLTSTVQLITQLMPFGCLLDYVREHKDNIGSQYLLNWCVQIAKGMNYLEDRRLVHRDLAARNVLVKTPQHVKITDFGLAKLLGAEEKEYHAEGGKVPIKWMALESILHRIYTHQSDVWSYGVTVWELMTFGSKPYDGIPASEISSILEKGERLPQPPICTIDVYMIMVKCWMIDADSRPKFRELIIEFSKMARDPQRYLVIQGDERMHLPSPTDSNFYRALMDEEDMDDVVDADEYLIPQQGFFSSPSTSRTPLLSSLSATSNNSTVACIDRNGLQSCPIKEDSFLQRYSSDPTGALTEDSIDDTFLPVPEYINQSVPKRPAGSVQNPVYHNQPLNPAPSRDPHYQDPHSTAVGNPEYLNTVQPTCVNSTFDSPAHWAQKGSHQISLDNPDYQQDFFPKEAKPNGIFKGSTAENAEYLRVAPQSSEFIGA

Regarding `COc1cc(C(=O)N2CCC(N3CCN(C)CC3)CC2)ccc1Nc1ncc2c(n1)N(C)c1ccccc1C(=O)N2C` [15 (LRRK2-IN-1)], the “KINOMEscan: JAK3(JH1domain-catalytic)” value in assay [1] stood at 100. Also, in assay [2], the “KINOMEscan: EGFR” value is listed as 84.

On to `COc1cc(C(=O)N2CCC(N3CCN(C)CC3)CC2)ccc1Nc1ncc2c(n1)N1CCc3cccc(c31)C(=O)N2C` [Compound 24], for which the “KINOMEscan: EGFR” value in assay [2] turned out to be 74.

As to `COc1cc(C(=O)N2CCC(N3CCN(C)CC3)CC2)ccc1Nc1ncc2c(n1)N(C1CCCC1)c1ccccc1C(=O)N2C` [Compound 25, 11-cyclopentyl-2-((2-methoxy-4-(4-(4-methylpiperazin-1-yl)piperidine-1-carbonyl)phenyl)amino)-5-methyl-5H-benzo[e]pyrimido[5,4-b][1,4]diazepin-6(11H)-one], the “KINOMEscan: JAK3(JH1domain-catalytic)” value in assay [1] is reported as 100. Besides, in assay [2], the “KINOMEscan: EGFR” value amounted to 89.

As to `CCOc1cc(C(=O)N2CCC(N3CCN(C)CC3)CC2)ccc1Nc1ncc2c(n1)N(C1CCCC1)c1ccccc1C(=O)N2C` [Compound 26], in assay [1], the “KINOMEscan: JAK3(JH1domain-catalytic)” value was 100. In addition, in assay [2], the “KINOMEscan: EGFR” value stood at 100.
